According to patent US12252524B2, “GIP/GLP1 co-agonist compounds” (Eli Lilly and Company, priority 2018, dated 2025):
Numbered stars: 1 amine (or outer) side, 2 acyl side, 3 side chain; on linkers, the order of the positions; unused ones are H or OH. Square brackets hold non-standard residues; d marks the D form. Side chains are listed from the residue outwards. Peptide text beside a SMILES is read from it. * marks the point of attachment. C18 diacid = O=C(O)CCCCCCCCCCCCCCCCC(=O)*; αMePhe(2-F) = C[C@](N)(Cc1ccccc1F)C(=O)O; γGlu = O=C(O)[C@H](CCC(=O)[*:2])N[*:1]; αMeF = C[C@](N)(Cc1ccccc1)C(=O)O; AEEA = NCCOCCOCC(=O)O; Aib = CC(C)(N)C(=O)O

How the values were obtained:
[1] = biological target: T1, human Gcg receptor (Homo sapiens, UniProt P47871); experiment: [125I]-Glucagon binding (SPA), human Gcg receptor; details: read-out: hGLcgR Ki, nM (SEM, n)
T1 construct: expressed in transfected cells; crude membranes
T1 sequence (P47871 26-477): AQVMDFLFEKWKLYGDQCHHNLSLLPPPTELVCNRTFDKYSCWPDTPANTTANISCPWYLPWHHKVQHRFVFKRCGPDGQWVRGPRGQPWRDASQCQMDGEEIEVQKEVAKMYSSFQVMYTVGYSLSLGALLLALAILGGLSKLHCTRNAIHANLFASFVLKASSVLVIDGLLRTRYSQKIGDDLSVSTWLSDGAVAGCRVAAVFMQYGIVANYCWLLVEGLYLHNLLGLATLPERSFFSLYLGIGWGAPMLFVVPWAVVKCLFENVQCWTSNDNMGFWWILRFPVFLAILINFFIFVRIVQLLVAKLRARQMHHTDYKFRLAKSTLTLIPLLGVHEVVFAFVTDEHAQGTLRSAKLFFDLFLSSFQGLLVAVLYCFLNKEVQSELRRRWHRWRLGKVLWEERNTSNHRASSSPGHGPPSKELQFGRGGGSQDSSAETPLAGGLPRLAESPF
Summary of the method: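 Scintillation counts are taken after membranes and WGA beads incubate and settle for 12 hours at room temperature. Buffer is 25 mM HEPES, pH 7.4, with CaCl2, MgCl2, bacitracin and Tween-20. Ki values, from four-parameter IC50 fits, are geometric means over independent days.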

[2] = biological target: T2, human GIP receptor (Homo sapiens, UniProt P48546); experiment: [125I]-GIP binding (SPA), human GIP receptor; details: read-out: hGIPR Ki, nM (SEM, n)
T2 construct: expressed in transfected cells; crude membranes
T2 sequence (P48546 22-466): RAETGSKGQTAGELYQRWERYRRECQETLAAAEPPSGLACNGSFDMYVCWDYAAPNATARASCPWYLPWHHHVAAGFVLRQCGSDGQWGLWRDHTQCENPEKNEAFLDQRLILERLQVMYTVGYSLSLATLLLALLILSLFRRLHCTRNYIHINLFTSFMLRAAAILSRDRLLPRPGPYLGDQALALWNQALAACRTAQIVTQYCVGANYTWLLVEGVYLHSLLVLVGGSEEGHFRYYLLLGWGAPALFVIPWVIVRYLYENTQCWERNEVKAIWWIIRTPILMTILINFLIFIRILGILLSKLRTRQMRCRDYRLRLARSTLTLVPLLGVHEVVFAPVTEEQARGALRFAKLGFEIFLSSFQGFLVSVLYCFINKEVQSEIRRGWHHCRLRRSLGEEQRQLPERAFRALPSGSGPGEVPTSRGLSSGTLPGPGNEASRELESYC

[3] = biological target: human GLP-1 receptor (GLP-1R) (Homo sapiens, UniProt P43220); experiment: cAMP pharmacological functional assay in presence of casein, hGLP-1R; type: cell-based; details: HEK293 cells expressing hGLP-1R, 0.1% Casein, geometric mean; read-out: hGLP1R cAMP Rel EC50 nM (SEM, n)
human GLP-1 receptor (GLP-1R), sequence (P43220 24-463): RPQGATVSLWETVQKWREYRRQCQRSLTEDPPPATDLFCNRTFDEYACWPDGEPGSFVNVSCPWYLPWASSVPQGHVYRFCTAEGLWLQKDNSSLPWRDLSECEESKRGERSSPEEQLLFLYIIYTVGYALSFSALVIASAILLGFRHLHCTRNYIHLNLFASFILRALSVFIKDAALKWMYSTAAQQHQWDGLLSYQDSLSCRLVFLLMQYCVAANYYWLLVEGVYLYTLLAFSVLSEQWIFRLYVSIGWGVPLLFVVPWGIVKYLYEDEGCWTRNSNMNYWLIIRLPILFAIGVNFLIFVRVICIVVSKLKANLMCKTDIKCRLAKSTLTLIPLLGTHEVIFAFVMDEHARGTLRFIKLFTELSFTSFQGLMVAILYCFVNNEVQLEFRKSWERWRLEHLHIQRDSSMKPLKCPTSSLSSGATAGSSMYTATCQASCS

[4] = biological target: T3, gastric inhibitory peptide receptor (GIPR) (Homo sapiens, UniProt P48546); experiment: cAMP pharmacological functional assay in presence of casein, hGIPR; type: cell-based; details: HEK293 cells expressing hGIPR, 0.1% Casein, geometric mean; read-out: hGIPR cAMP Rel EC50 nM (SEM, n)
T3 sequence (P48546 22-466): T2 sequence (P48546 22-466)

[5] = biological target: human GLP-1R (Homo sapiens, UniProt P43220); experiment: [125I]-GLP-1 binding (SPA), human GLP-1 receptor; set-up: expressed in transfected cells; crude membranes; details: read-out: hGLP1R Ki, (nM) (SEM, n)
human GLP-1R, sequence (P43220 24-463): as above
Summary of the method: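 Frozen cell pellets are lysed on ice in hypotonic Tris buffer, pH 7.5, homogenized, and centrifuged to a membrane pellet resuspended at about 1 to 3 mg/mL. Binding is then measured in HEPES-based buffer at pH 7.4, and curves are fitted to give IC50 and Ki.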

Structure (SMILES) | Ki [1] [nM] | Ki [2] [nM] | EC50 [3] [nM] | EC50 [4] [nM] | Ki [5] [nM]
CC[C@H](C)[C@H](NC(=O)[C@H](CC(C)C)NC(=O)[C@H](Cc1ccc(O)cc1)NC(=O)[C@H](CCC(=O)O)NC(=O)[C@@H](NC(=O)[C@H](Cc1ccccc1)NC(=O)[C@H](C)NC(=O)C(C)(C)NC(=O)[C@H](CCC(N)=O)NC(=O)[C@H](C)NC(=O)[C@H](CCCCNC(=O)COCCOCCNC(=O)COCCOCCNC(=O)CC[C@H](NC(=O)CCCCCCCCCCCCCCCCC(=O)O)C(=O)O)NC(=O)[C@H](CCC(=O)O)NC(=O)[C@H](CC(=O)O)NC(=O)[C@H](CC(C)C)NC(=O)[C@H](CC(C)C)NC(=O)[C@@H](NC(=O)[C@H](CO)NC(=O)[C@H](Cc1ccc(O)cc1)NC(=O)[C@H](CC(=O)O)NC(=O)[C@H](CO)NC(=O)[C@@H](NC(=O)[C@](C)(Cc1ccccc1)NC(=O)[C@@H](NC(=O)CNC(=O)[C@H](CCC(=O)O)NC(=O)C(C)(C)NC(=O)[C@@H](N)Cc1ccc(O)cc1)[C@@H](C)O)[C@@H](C)O)[C@@H](C)CC)[C@@H](C)CC)C(=O)N[C@@H](CCC(=O)O)C(=O)NCC(=O)NCC(=O)N1CCC[C@H]1C(=O)N[C@@H](CO)C(=O)N[C@@H](CO)C(=O)NCC(N)=O [Example 307] (H-Y[Aib]EGT[αMeF]TSDYSILLDEK([AEEA-AEEA-γGlu-C18 diacid])AQ[Aib]AFIEYLIEGGPSSG-NH2) | 117 | 0.0773 | 0.0437 | 0.0285 | 5.1
CC[C@H](C)[C@H](NC(=O)[C@H](CC(C)C)NC(=O)[C@H](Cc1ccc(O)cc1)NC(=O)[C@H](CCC(=O)O)NC(=O)[C@@H](NC(=O)[C@H](Cc1ccccc1)NC(=O)[C@H](CCC(=O)O)NC(=O)C(C)(C)NC(=O)[C@H](CCC(N)=O)NC(=O)[C@H](C)NC(=O)[C@H](CCCCNC(=O)COCCOCCNC(=O)COCCOCCNC(=O)CC[C@H](NC(=O)CCCCCCCCCCCCCCCCC(=O)O)C(=O)O)NC(=O)[C@H](CCCCN)NC(=O)[C@H](CC(=O)O)NC(=O)[C@H](CC(C)C)NC(=O)[C@H](CC(C)C)NC(=O)[C@@H](NC(=O)[C@H](CO)NC(=O)[C@H](Cc1ccc(O)cc1)NC(=O)[C@H](CC(=O)O)NC(=O)[C@H](CO)NC(=O)[C@@H](NC(=O)[C@](C)(Cc1ccccc1)NC(=O)[C@@H](NC(=O)CNC(=O)[C@H](CCC(=O)O)NC(=O)C(C)(C)NC(=O)[C@@H](N)Cc1ccc(O)cc1)[C@@H](C)O)[C@@H](C)O)[C@@H](C)CC)[C@@H](C)CC)C(=O)N[C@@H](C)C(=O)NCC(=O)NCC(=O)N1CCC[C@H]1C(=O)N[C@@H](CO)C(=O)N[C@@H](CO)C(=O)NCC(N)=O [Example 310] (H-Y[Aib]EGT[αMeF]TSDYSILLDKK([AEEA-AEEA-γGlu-C18 diacid])AQ[Aib]EFIEYLIAGGPSSG-NH2; N-terminus assumed) | 174 | 0.0315 | 0.0283 | 0.0176 | 1.7
CC[C@H](C)[C@H](NC(=O)[C@H](CC(C)C)NC(=O)[C@H](Cc1ccc(O)cc1)NC(=O)[C@H](CCC(=O)O)NC(=O)[C@@H](NC(=O)[C@H](Cc1ccccc1)NC(=O)[C@H](C)NC(=O)C(C)(C)NC(=O)[C@H](CCC(N)=O)NC(=O)[C@H](C)NC(=O)[C@H](CCCCNC(=O)COCCOCCNC(=O)COCCOCCNC(=O)CC[C@H](NC(=O)CCCCCCCCCCCCCCCCC(=O)O)C(=O)O)NC(=O)[C@H](CCC(=O)O)NC(=O)[C@H](CC(=O)O)NC(=O)[C@H](CC(C)C)NC(=O)[C@H](CC(C)C)NC(=O)[C@@H](NC(=O)[C@H](CO)NC(=O)[C@H](Cc1ccc(O)cc1)NC(=O)[C@H](CC(=O)O)NC(=O)[C@H](CO)NC(=O)[C@@H](NC(=O)[C@](C)(Cc1ccccc1F)NC(=O)[C@@H](NC(=O)CNC(=O)[C@H](CCC(=O)O)NC(=O)C(C)(C)NC(=O)[C@@H](N)Cc1ccc(O)cc1)[C@@H](C)O)[C@@H](C)O)[C@@H](C)CC)[C@@H](C)CC)C(=O)N[C@@H](CCC(=O)O)C(=O)NCC(=O)NCC(=O)N1CCC[C@H]1C(=O)N[C@@H](CO)C(=O)N[C@@H](CO)C(=O)NCC(N)=O [Example 311] (H-Y[Aib]EGT[αMePhe(2-F)]TSDYSILLDEK([AEEA-AEEA-γGlu-C18 diacid])AQ[Aib]AFIEYLIEGGPSSG-NH2) | 115 | 0.0497 | 0.0393 | 0.0334 | 11.5

The next compounds have a lower Ki [1] than those just listed; values first:

Ki [1] [nM] | Ki [2] [nM] | EC50 [3] [nM] | EC50 [4] [nM] | Ki [5] [nM] | Structure (SMILES)
106 | 0.0348 | 0.0262 | 0.0207 | 1.63 | CC[C@H](C)[C@H](NC(=O)[C@H](CC(C)C)NC(=O)[C@H](Cc1ccc(O)cc1)NC(=O)[C@H](CCC(=O)O)NC(=O)[C@@H](NC(=O)[C@H](Cc1ccccc1)NC(=O)[C@H](CCC(=O)O)NC(=O)C(C)(C)NC(=O)[C@H](CCC(N)=O)NC(=O)[C@H](C)NC(=O)[C@H](CCCCNC(=O)COCCOCCNC(=O)COCCOCCNC(=O)CC[C@H](NC(=O)CCCCCCCCCCCCCCCCC(=O)O)C(=O)O)NC(=O)[C@H](CCCCN)NC(=O)[C@H](CC(=O)O)NC(=O)[C@H](CC(C)C)NC(=O)[C@H](CC(C)C)NC(=O)[C@@H](NC(=O)[C@H](CO)NC(=O)[C@H](Cc1ccc(O)cc1)NC(=O)[C@H](CC(=O)O)NC(=O)[C@H](CO)NC(=O)[C@@H](NC(=O)[C@](C)(Cc1ccccc1F)NC(=O)[C@@H](NC(=O)CNC(=O)[C@H](CCC(=O)O)NC(=O)C(C)(C)NC(=O)[C@@H](N)Cc1ccc(O)cc1)[C@@H](C)O)[C@@H](C)O)[C@@H](C)CC)[C@@H](C)CC)C(=O)N[C@@H](CCC(=O)O)C(=O)NCC(=O)NCC(=O)N1CCC[C@H]1C(=O)N[C@@H](CO)C(=O)N[C@@H](CO)C(=O)NCC(N)=O [Example 312] (H-Y[Aib]EGT[αMePhe(2-F)]TSDYSILLDKK([AEEA-AEEA-γGlu-C18 diacid])AQ[Aib]EFIEYLIEGGPSSG-NH2)
94.2 | 0.0288 | 0.0392 | 0.0262 | 1.01 | CC[C@H](C)[C@H](NC(=O)[C@H](CC(C)C)NC(=O)[C@H](Cc1ccc(O)cc1)NC(=O)[C@H](CCC(=O)O)NC(=O)[C@@H](NC(=O)[C@H](Cc1ccccc1)NC(=O)[C@H](CCC(=O)O)NC(=O)C(C)(C)NC(=O)[C@H](CCC(N)=O)NC(=O)[C@H](C)NC(=O)[C@H](CCCCNC(=O)COCCOCCNC(=O)COCCOCCNC(=O)CC[C@H](NC(=O)CCCCCCCCCCCCCCCCC(=O)O)C(=O)O)NC(=O)[C@H](CCCCN)NC(=O)[C@H](CC(=O)O)NC(=O)[C@H](CC(C)C)NC(=O)[C@H](CC(C)C)NC(=O)[C@@H](NC(=O)[C@H](CO)NC(=O)[C@H](Cc1ccc(O)cc1)NC(=O)[C@H](CC(=O)O)NC(=O)[C@H](CO)NC(=O)[C@@H](NC(=O)[C@](C)(Cc1ccccc1)NC(=O)[C@@H](NC(=O)CNC(=O)[C@H](CCC(=O)O)NC(=O)C(C)(C)NC(=O)[C@@H](N)Cc1ccc(O)cc1)[C@@H](C)O)[C@@H](C)O)[C@@H](C)CC)[C@@H](C)CC)C(=O)N[C@@H](CCC(=O)O)C(=O)NCC(=O)NCC(=O)N1CCC[C@H]1C(=O)N[C@@H](CO)C(=O)N[C@@H](CO)C(=O)NCC(N)=O [Example 308] (H-Y[Aib]EGT[αMeF]TSDYSILLDKK([AEEA-AEEA-γGlu-C18 diacid])AQ[Aib]EFIEYLIEGGPSSG-NH2)
64.1 | 0.0264 | 0.033 | 0.0389 | 1.04 | CC[C@H](C)[C@H](NC(=O)[C@H](CC(C)C)NC(=O)[C@H](Cc1ccc(O)cc1)NC(=O)[C@H](CCC(=O)O)NC(=O)[C@@H](NC(=O)[C@H](Cc1ccccc1)NC(=O)[C@H](C)NC(=O)C(C)(C)NC(=O)[C@H](CCC(N)=O)NC(=O)[C@H](C)NC(=O)[C@H](CCCCNC(=O)COCCOCCNC(=O)COCCOCCNC(=O)CC[C@H](NC(=O)CCCCCCCCCCCCCCCCC(=O)O)C(=O)O)NC(=O)[C@H](CCCCN)NC(=O)[C@H](CC(=O)O)NC(=O)[C@H](CC(C)C)NC(=O)[C@H](CC(C)C)NC(=O)[C@@H](NC(=O)[C@H](CO)NC(=O)[C@H](Cc1ccc(O)cc1)NC(=O)[C@H](CC(=O)O)NC(=O)[C@H](CO)NC(=O)[C@@H](NC(=O)[C@](C)(Cc1ccccc1)NC(=O)[C@@H](NC(=O)CNC(=O)[C@H](CCC(=O)O)NC(=O)C(C)(C)NC(=O)[C@@H](N)Cc1ccc(O)cc1)[C@@H](C)O)[C@@H](C)O)[C@@H](C)CC)[C@@H](C)CC)C(=O)N[C@@H](C)C(=O)NCC(=O)NCC(=O)N1CCC[C@H]1C(=O)N[C@@H](CO)C(=O)N[C@@H](CO)C(=O)NCC(N)=O [Example 309] (H-Y[Aib]EGT[αMeF]TSDYSILLDKK([AEEA-AEEA-γGlu-C18 diacid])AQ[Aib]AFIEYLIAGGPSSG-NH2)
